From patent publication US11976057B2, “MrgX2 antagonists” (GlaxoSmithKline Intellectual Property Development Limited, priority 2020, dated 2024)

What follows are compounds tested against T1, human MRGPRX2 (Homo sapiens, UniProt Q96LB1) (assay: Ca2+ mobilization assay (FLIPR TETRA): inhibition of Cortistatin-14 mediated MRGPRX2 activation).
T1 sequence (Q96LB1 1-330): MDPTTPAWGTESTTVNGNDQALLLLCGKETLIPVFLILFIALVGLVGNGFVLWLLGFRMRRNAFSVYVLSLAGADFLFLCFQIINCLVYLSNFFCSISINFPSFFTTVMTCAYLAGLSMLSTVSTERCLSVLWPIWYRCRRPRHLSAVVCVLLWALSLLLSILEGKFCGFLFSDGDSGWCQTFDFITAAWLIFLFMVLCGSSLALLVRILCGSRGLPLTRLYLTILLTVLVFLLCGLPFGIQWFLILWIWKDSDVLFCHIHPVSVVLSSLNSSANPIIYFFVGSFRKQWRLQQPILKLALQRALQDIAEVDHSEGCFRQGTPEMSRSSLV

Row | SMILES | IC50 [µM]
1 | C[C@@H](C(=O)Nc1ccc(Oc2ccc(F)cc2F)cn1)N1CCC(F)(F)[C@@H](c2c[nH]c(=O)c(CNC3CC(F)(F)C3)c2)C1 [Example 241, (S)-2-((S)-3-(5-(((3,3-difluorocyclobutyl)amino)methyl)-6-oxo-1,6-dihydropyridin-3-yl)-4,4-difluoropiperidin-1-yl)-N-(5-(2,4-difluorophenoxy)pyridin-2-yl)propanamide] | ≤ 0.01
2 | CC(C(=O)Nc1ccc(Oc2ccc[nH]c2=O)cn1)N1CCC(F)(F)[C@@H](c2ccc(=O)[nH]c2)C1 (stereo partly drawn) [Example 72, 2-((S)-4,4-difluoro-3-(6-oxo-1,6-dihydropyridin-3-yl)piperidin-1-yl)-N-(5-((2-oxo-1,2-dihydropyridin-3-yl)oxy)pyridin-2-yl)propanamide] | 0.01 to 0.1
3 | Cc1cc([C@@H]2CN([C@H](C)C(=O)Nc3ccc(Oc4ccc(F)cc4)cn3)CCC2(F)F)cc[n+]1[O-] (racemic) [Example 218, 4-((R)-4,4-difluoro-1-((R)-1-((5-(4-fluorophenoxy)pyridin-2-yl)amino)-1-oxopropan-2-yl)piperidin-3-yl)-2-methylpyridine 1-oxide and 4-((S)-4,4-difluoro-1-((S)-1-((5-(4-fluorophenoxy)pyridin-2-yl)amino)-1-oxopropan-2-yl)piperidin-3-yl)-2-methylpyridine 1-oxide] | 0.01 to 0.1
4 | C[C@@H](C(=O)Nc1ccc(Oc2ccc(F)cn2)cn1)N1CCC(F)(F)[C@@H](c2c[nH]c(=O)c(CO)c2)C1 [Example 157, (S)-2-((S)-4,4-difluoro-3-(5-(hydroxymethyl)-6-oxo-1,6-dihydropyridin-3-yl)piperidin-1-yl)-N-(5-((5-fluoropyridin-2-yl)oxy)pyridin-2-yl)propanamide] | 0.01 to 0.1
5 | CCn1cc(C2CN([C@@H](C)C(=O)Nc3ccc(F)cn3)CCC2(F)F)ccc1=O (stereo partly drawn) [Example 188, (2S)-2-(3-(1-ethyl-6-oxo-1,6-dihydropyridin-3-yl)-4,4-difluoropiperidin-1-yl)-N-(5-fluoropyridin-2-yl)propanamide] | 0.1 to 3.16
6 | C[C@@H](C(=O)Nc1ccc(Oc2ccccn2)cn1)N1CCC(F)(F)[C@@H](c2ccc(=O)[nH]c2)C1 [Example 61, (S)-2-((S)-4,4-difluoro-3-(6-oxo-1,6-dihydropyridin-3-yl)piperidin-1-yl)-N-(5-(pyridin-2-yloxy)pyridin-2-yl)propanamide] | 0.01 to 0.1
7 | CC(C(=O)Nc1ccc(OCC2CC2)cn1)N1CC(c2ccc(=O)[nH]c2)C(F)(F)C1 (centres unmarked) [Example 164, N-(5-(cyclopropylmethoxy)pyridin-2-yl)-2-(3,3-difluoro-4-(6-oxo-1,6-dihydropyridin-3-yl)pyrrolidin-1-yl)propanamide] | 0.1 to 3.16
8 | CNCc1cc([C@H]2CN([C@@H](C)C(=O)Nc3cnc(Oc4ccc(F)cc4F)cn3)CCC2(F)F)c[nH]c1=O [Example 244, (S)-2-((S)-4,4-difluoro-3-(5-((methylamino)methyl)-6-oxo-1,6-dihydropyridin-3-yl)piperidin-1-yl)-N-(5-(2,4-difluorophenoxy)pyrazin-2-yl)propanamide] | ≤ 0.01
9 | C[C@@H](C(=O)Nc1ccc(OCC2CC2)nn1)N1CCC(F)(F)[C@@H](c2c[nH]c(=O)c(CN3CCOCC3)c2)C1 (single isomer, unassigned) [Example 225] | 0.1 to 3.16
10 | C[C@@H](C(=O)Nc1ccc(Cc2ccccc2)cn1)N1CCC(F)(F)[C@@H](c2ccc(=O)[nH]c2)C1 [Example 7, (S)-N-(5-benzylpyridin-2-yl)-2-((S)-4,4-difluoro-3-(6-oxo-1,6-dihydropyridin-3-yl)piperidin-1-yl)propanamide] | ≤ 0.01
11 | C[C@@H](C(=O)Nc1ccc(Oc2ccc(F)cc2F)cn1)N1CCC(F)(F)[C@@H](c2c[nH]c(=O)c(CN3CCOCC3)c2)C1 [Example 227, (S)-2-((S)-4,4-difluoro-3-(5-(morpholinomethyl)-6-oxo-1,6-dihydropyridin-3-yl)piperidin-1-yl)-N-(5-(2,4-difluorophenoxy)pyridin-2-yl)propanamide] | ≤ 0.01
12 | C[C@@H](C(=O)Nc1ccc(OCC2CC2)cn1)N1CCC[C@@](O)(c2ccc(=O)[nH]c2)C1 (single isomer, unassigned) [Example 171] | 3.16 to 31.6
13 | C[C@@H](C(=O)Nc1ccc(Oc2ccc(F)cc2F)cn1)N1CCC(F)(F)[C@@H](c2c[nH]c(=O)c(CNCC(F)(F)F)c2)C1 [Example 242, (S)-2-((S)-4,4-difluoro-3-(6-oxo-5-(((2,2,2-trifluoroethyl)amino)methyl)-1,6-dihydropyridin-3-yl)piperidin-1-yl)-N-(5-(2,4-difluorophenoxy)pyridin-2-yl)propanamide] | ≤ 0.01
14 | C[C@@H](C(=O)Nc1ccc(Oc2ccc(F)cc2)cn1)N1CCC(F)(F)[C@@H](c2c[nH]c(=O)c(C(N)=O)c2)C1 [Example 252, 5-((S)-4,4-difluoro-1-((S)-1-((5-(4-fluorophenoxy)pyridin-2-yl)amino)-1-oxopropan-2-yl)piperidin-3-yl)-2-oxo-1,2-dihydropyridine-3-carboxamide] | ≤ 0.01
15 | CC(C(=O)Nc1ccc(Cl)cn1)N1CCC(F)(F)C(c2c[nH]c(=O)c(CO)c2)C1 (centres unmarked) [Example 155, N-(5-chloropyridin-2-yl)-2-(4,4-difluoro-3-(5-(hydroxymethyl)-6-oxo-1,6-dihydropyridin-3-yl)piperidin-1-yl)propanamide] | 0.1 to 3.16
16 | CC(C(=O)Nc1cc(F)c(F)cn1)N1CCC(F)(F)[C@@H](c2ccc(=O)[nH]c2)C1 (stereo partly drawn) [Example 39, 2-((S)-4,4-difluoro-3-(6-oxo-1,6-dihydropyridin-3-yl)piperidin-1-yl)-N-(4,5-difluoropyridin-2-yl)propanamide] | 0.1 to 3.16
17 | C[C@@H](C(=O)Nc1ccc(Oc2c(F)cc(F)cc2F)cn1)N1CCC(F)(F)[C@@H](c2cc[n+]([O-])cc2)C1 [Example 123, 4-((S)-4,4-difluoro-1-((S)-1-oxo-1-((5-(2,4,6-trifluorophenoxy)pyridin-2-yl)amino)propan-2-yl)piperidin-3-yl)pyridine 1-oxide] | ≤ 0.01
18 | C[C@@H](C(=O)Nc1ccc(OCC2CC2)nn1)N1CCC(F)(F)[C@@H](c2ccc(=O)n(CC(F)(F)F)c2)C1 [Example 1, (S)—N-(6-(cyclopropylmethoxy)pyridazin-3-yl)-2-((S)-4,4-difluoro-3-(6-oxo-1-(2,2,2-trifluoroethyl)-1,6-dihydropyridin-3-yl)piperidin-1-yl)propanamide] | ≤ 0.01
19 | C[C@@H](C(=O)Nc1ccc(Oc2ccc(F)cc2F)cn1)N1CCC(F)(F)[C@@H](c2c[nH]c(=O)c(CN)c2)C1 [Example 205, (S)-2-((S)-3-(5-(aminomethyl)-6-oxo-1,6-dihydropyridin-3-yl)-4,4-difluoropiperidin-1-yl)-N-(5-(2,4-difluorophenoxy)pyridin-2-yl)propanamide] | ≤ 0.01
20 | C[C@H]1C[C@@H](c2ccc(=O)[nH]c2)CN([C@@H](C)C(=O)Nc2ccc(Cl)cn2)C1 [Example 172] | 0.1 to 3.16
21 | C[C@@H](C(=O)Nc1ccc(OCC2CC2)nn1)N1CCC(F)(F)[C@@H](c2cc[n+]([O-])c(CC(F)(F)F)c2)C1 [Example 220] | ≤ 0.01
22 | Cc1cc(C2CN([C@@H](C)C(=O)Nc3ccc(F)cn3)CCC2(F)F)cn(CC(F)(F)F)c1=O (stereo partly drawn) [Example 200, (2S)-2-(4,4-difluoro-3-(5-methyl-6-oxo-1-(2,2,2-trifluoroethyl)-1,6-dihydropyridin-3-yl)piperidin-1-yl)-N-(5-fluoropyridin-2-yl)propanamide] | 3.16 to 31.6
23 | C[C@@H](C(=O)Nc1ccc(Cc2ccccc2)nn1)N1CCC(F)(F)[C@@H](c2ccc(=O)[nH]c2)C1 [Example 12, (S)-N-(6-benzylpyridazin-3-yl)-2-((S)-4,4-difluoro-3-(6-oxo-1,6-dihydropyridin-3-yl)piperidin-1-yl)propanamide] | 0.01 to 0.1
24 | C[C@@H](C(=O)Nc1ccc(OCC2CC2)nn1)N1CCC(F)(F)[C@@H](c2ccc(=O)[nH]n2)C1 [Example 146, (S)-N-(6-(cyclopropylmethoxy)pyridazin-3-yl)-2-((R)-4,4-difluoro-3-(6-oxo-1,6-dihydropyridazin-3-yl)piperidin-1-yl)propanamide] | 0.01 to 0.1
25 | C[C@@H](C(=O)Nc1ccc(OCC2CC2)nn1)N1CCC(F)(F)C(c2c[nH]c(=O)c(CO)c2)C1 (stereo partly drawn) [Example 154, (S)-N-(6-(cyclopropylmethoxy)pyridazin-3-yl)-2-(4,4-difluoro-3-(5-(hydroxymethyl)-6-oxo-1,6-dihydropyridin-3-yl)piperidin-1-yl)propanamide] | 0.1 to 3.16
26 | C[C@@H](C(=O)Nc1ccc(Oc2ncccc2F)cn1)N1CCC(F)(F)[C@@H](c2ccc(=O)[nH]c2)C1 [Example 65, (S)-2-((S)-4,4-difluoro-3-(6-oxo-1,6-dihydropyridin-3-yl)piperidin-1-yl)-N-(5-((3-fluoropyridin-2-yl)oxy)pyridin-2-yl)propanamide] | 0.01 to 0.1
27 | COc1ccc(NC(=O)C(C)N2CCC(F)(F)[C@@H](c3ccc(=O)[nH]c3)C2)nc1 (stereo partly drawn) [Example 44, 2-((S)-4,4-difluoro-3-(6-oxo-1,6-dihydropyridin-3-yl)piperidin-1-yl)-N-(5-methoxypyridin-2-yl)propanamide] | 3.16 to 31.6
28 | C[C@@H](C(=O)Nc1ccc(Oc2ccc(F)cn2)cn1)[C@H]1CCC(F)(F)[C@@H](c2cc[n+]([O-])cc2)C1 [Example 294, 4-((1R,5S)-2,2-difluoro-5-((R)-1-((5-((5-fluoropyridin-2-yl)oxy)pyridin-2-yl)amino)-1-oxopropan-2-yl)cyclohexyl)pyridine 1-oxide] | ≤ 0.01
29 | C[C@@H](C(=O)Nc1ccc(F)cn1)N1CCC(F)(F)[C@@H](c2cn(CC(F)(F)F)c(=O)cn2)C1 (single isomer, unassigned) [Example 103] | ≤ 0.01
